Where two headings read alike, the source gives them in different places. Marks after values point to notes of the source that are not given here.
Tests used:
mice = assay: Biological Example 5: acute toxicity experiment of single oral administration in mice; assay type: in vivo; conditions: single oral 1000 mg/Kg, Mean ± SD
Protocol: The mice were fasted one day before the experiment. On the day of the experiment, 6 mice (ICR mice, body weight of 19-21 g, three females and three males) were selected in each experiment group. First of all, one female and one male were selected to orally give 1000 mg/Kg, and observed for 5-10 minutes. If there were no obvious side effects, the remaining 4 animals were orally given the same dose, and observed for 10-15 minutes. If no animal died, the animals were placed in a box to balancedly feed for 7 days. The state was observed and the body weight was recorded daily.
Observation Indexes within 0-15 Minutes after Administration
Activity: restlessness, hyperactivity
Nervous system response: tremor, spasm, convulsion, ataxia, posture abnormality, etc.
Autonomic nerve: exophthalmos, salivation, tears, urination (hematuria), diarrhea, piloerection, breathing, etc.
State of Animal: lethargy, hyperactivity, excitement, hair loss, diarrhea, abnormal behavior, death, etc.

[1] = system: DNBS-Induced Inflammatory Bowel Disease Models in Rats; assay: Biological Example 4: DNBS-induced inflammatory bowel disease models in rats; assay type: in vivo, Wistar rats; conditions: 30 mg/Kg i.g. qd × 7; for Adhesion Degree of Colon / Colon weight to length ratio / Ulcer area of colon / inhibition in vivo at 30 mg/kg: day 7; for Body weight: Mean ± SD; for inhibition in vivo at 30 mg/kg: Rattus norvegicus, po, 168 h
Protocol: 102 male Wistar rats were fasted for 72 hours. A 5% glucose injection was administered subcutaneously twice during fasting. 88 rats with normal conditions and moderate body weight were selected from the fasting rats. The animals were randomly divided into 11 groups according to the body weight (see Table 11. Grouped Table).
The animals were anesthetized with ether after 72 hours fasting. A specially made gavage device was slowly inserted into the enteric cavity at 8 cm from the anus. The model control group and each test group were administered with 0.5 mL of 50 mg/mL DNBS in 30% ethanol solution. The normal control group was administered with 0.5 mL of 30% ethanol solution. The animals were inverted in anesthesia for 15 minutes. The day when the model was prepared was day 0 of the experiment. After 4 hours of DNBS induction, the corresponding drug or the corresponding volume of 1% CMC-Na was administered once per day. On day 7 of the experiment, the animals were euthanized to score the colon adhesion degree, measure the length of colon and ulcer area, weigh colon and calculate the colon weight to length ratio.
One-way ANOVA analysis of the length of colon and colon weight per length of rats was performed by SPSS22. Statistical analyses between groups were performed. The adhesion degree was scored. Mann-Whitney U non-parametric test was performed on ulcer area. Statistical analyses between groups were performed.
Calculation Formula of Inhibitory rate of weight increase per length: (Colon weight to length ratio in model group−Colon weight to length ratio in administration group)/(Colon weight to length ratio in model group−Colon weight to length ratio in blank group)

[2] = read-out: Inhibitory rate of colon adhesion
[3] = read-out: Inhibitory rate of ulcer area of colon
[4] = read-out: Inhibitory rate of weight increase per length

Compound | Daily Body Weight (mice; Female mice, Day 1) | Daily Body Weight (mice; Female mice, Day 2) | Daily Body Weight (mice; Female mice, Day 3) | Daily Body Weight (mice; Female mice, Day 4) | Daily Body Weight (mice; Female mice, Day 5) | Daily Body Weight (mice; Female mice, Day 6) | Daily Body Weight (mice; Female mice, Day 7) | Daily Body Weight (mice; Male mice, Day 1) | Daily Body Weight (mice; Male mice, Day 2) | Daily Body Weight (mice; Male mice, Day 3) | Daily Body Weight (mice; Male mice, Day 4) | Daily Body Weight (mice; Male mice, Day 5) | Daily Body Weight (mice; Male mice, Day 6) | Daily Body Weight (mice; Male mice, Day 7) | Adhesion Degree of Colon [1] | Colon weight to length ratio [1] | Ulcer area of colon [1] | Body weight ([1]; Day 1) | Body weight ([1]; Day 2) | Body weight ([1]; Day 3) | also measured
COCCN1C(=O)CCC(N2C(=O)c3c(N)ccc(O)c3C2=O)C1=O (stereo not drawn) [Example 10, 4-amino-7-hydroxy-2-(1-(2-methoxyethyl)-2,6-dioxopiperidin-3-yl)isoindolin-1,3-dione] | 19.2 ± 0.5 g | 21.9 ± 0.4 g | 22.4 ± 0.2 g | 22.4 ± 0.2 g | 22.9 ± 0.6 g | 24.1 ± 1.5 g | 24.2 ± 1.8 g | 19.4 ± 0.3 g | 24.4 ± 0.6 g | 25.5 ± 0.9 g | 25.5 ± 0.9 g | 26.8 ± 0.9 g | 29.2 ± 0.7 g | 30.3 ± 0.7 g | 0.5 ± 0.5 point | 93 ± 12 mg/cm | 0.2 ± 0.5# cm^2 | 122.4 ± 6.7 g | 122.1 ± 8.0 g | 126.6 ± 9.8 g | Body weight ([1]; Day 4): 136.9 ± 12.5 g; Body weight ([1]; Day 5): 143.7 ± 18.2 g; Body weight ([1]; Day 6): 144.9 ± 19.7 g; Body weight ([1]; Day 7): 160.8 ± 25.7 g; inhibition in vivo at 30 mg/kg [1, 2]: 81.1%; inhibition in vivo at 30 mg/kg [1, 3]: 91.7%; inhibition in vivo at 30 mg/kg [1, 4]: 81.2%
C[S+]([O-])CCN1C(=O)CCC(N2C(=O)c3cccc(N)c3C2=O)C1=O (stereo not drawn) [Example 12, 4-amino-2-(1-(2-methylsulfinylethyl)-2,6-dioxopiperidin-3-yl)isoindolin-1,3-dione] | 18.7 ± 0.7 g | 21.8 ± 0.6 g | 22.6 ± 0.1 g | 22.6 ± 0.0 g | 23.7 ± 0.6 g | 25.3 ± 1.0 g | 25.7 ± 1.6 g | 18.5 ± 0.2 g | 24.3 ± 0.6 g | 24.9 ± 0.1 g | 24.9 ± 0.1 g | 26.1 ± 0.7 g | 27.8 ± 0.7 g | 28.5 ± 0.7 g | 0.8 ± 0.7 point | 92 ± 16 mg/cm | 0.4 ± 0.9 cm^2 | 129.1 ± 5.1 g | 128.7 ± 6.6 g | 133.9 ± 9.8 g | Body weight ([1]; Day 4): 141.8 ± 12.0 g; Body weight ([1]; Day 5): 149.2 ± 11.0 g; Body weight ([1]; Day 6): 149.5 ± 11.2 g; Body weight ([1]; Day 7): 167.3 ± 11.3 g; inhibition in vivo at 30 mg/kg [1, 2]: 62.2%; inhibition in vivo at 30 mg/kg [1, 3]: 83.3%; inhibition in vivo at 30 mg/kg [1, 4]: 82.4%
COCCN1C(=O)CCC(N2C(=O)c3cccc(O)c3C2=O)C1=O (stereo not drawn) [Example 23, 4-hydroxy-2-(1-(2-methoxyethyl)-2,6-dioxopiperidin-3-yl)isoindolin-1,3-dione] | 19.1 ± 0.6 g | 22.4 ± 0.4 g | 23.0 ± 0.1 g | 23.0 ± 0.1 g | 24.6 ± 0.4 g | 24.8 ± 0.7 g | 24.6 ± 0.4 g | 19.4 ± 0.8 g | 24.6 ± 1.2 g | 24.5 ± 0.6 g | 24.5 ± 0.6 g | 25.4 ± 1.2 g | 28.1 ± 0.8 g | 29.0 ± 0.8 g | 0.8 ± 0.7 point | 105 ± 12 mg/cm | 0.2 ± 0.3# cm^2 | 126.6 ± 8.5 g | 123.2 ± 9.0 g | 123.9 ± 7.6 g | Body weight ([1]; Day 4): 136.5 ± 11.8 g; Body weight ([1]; Day 5): 148.1 ± 14.5 g; Body weight ([1]; Day 6): 152.1 ± 15.9 g; Body weight ([1]; Day 7): 166.8 ± 12.8 g; inhibition in vivo at 30 mg/kg [1, 2]: 62.2%; inhibition in vivo at 30 mg/kg [1, 3]: 91.7%; inhibition in vivo at 30 mg/kg [1, 4]: 67.1%
COCCN1C(=O)CCC(N2C(=O)c3cccc(C)c3C2=O)C1=O (stereo not drawn) [Example 24, 4-methyl-2-(1-(2-methoxyethyl)-2,6-dioxopiperidin-3-yl)-isoindolin-1,3-dione] | 18.4 ± 0.7 g | 22.4 ± 1.0 g | 23.4 ± 1.0 g | 23.6 ± 0.9 g | 24.3 ± 0.6 g | 24.7 ± 0.6 g | 24.8 ± 1.5 g | 17.7 ± 0.2 g | 22.3 ± 0.7 g | 24.5 ± 1.0 g | 25.2 ± 1.0 g | 27.2 ± 1.3 g | 28.1 ± 2.0 g | 28.9 ± 1.9 g | 0.8 ± 0.7 point | 99 ± 18 mg/cm | 0.3 ± 0.3 cm^2 | 129.1 ± 5.5 g | 130.9 ± 10.4 g | 133.2 ± 14.5 g | Body weight ([1]; Day 4): 135.3 ± 13.6 g; Body weight ([1]; Day 5): 144.9 ± 12.6 g; Body weight ([1]; Day 6): 145.9 ± 13.3 g; Body weight ([1]; Day 7): 165.6 ± 12.1 g; inhibition in vivo at 30 mg/kg [1, 2]: 62.2%; inhibition in vivo at 30 mg/kg [1, 3]: 87.5%; inhibition in vivo at 30 mg/kg [1, 4]: 74.1%

— patent US20220372013A2, “PIPERIDINE-2,6-DIONE DERIVATIVES AND CROHN'S DISEASE TREATING” (Tianjin Hemay Pharmaceutical Sci-Tech Co., Ltd, priority 2016, published 2022)
